The text below walks through data of patent US6878381B2, “Resorcinol composition” (Pfizer, Inc, priority 1999, dated 2005).

Structures are written as SMILES.

Experiment [1] concerns the target T1, human tyrosinase (Homo sapiens, UniProt P14679).
T1 construct: endogenous in cells; host or cells: SKMEL 188 human melanoma cell line (lysate)
T1 sequence (P14679 19-529): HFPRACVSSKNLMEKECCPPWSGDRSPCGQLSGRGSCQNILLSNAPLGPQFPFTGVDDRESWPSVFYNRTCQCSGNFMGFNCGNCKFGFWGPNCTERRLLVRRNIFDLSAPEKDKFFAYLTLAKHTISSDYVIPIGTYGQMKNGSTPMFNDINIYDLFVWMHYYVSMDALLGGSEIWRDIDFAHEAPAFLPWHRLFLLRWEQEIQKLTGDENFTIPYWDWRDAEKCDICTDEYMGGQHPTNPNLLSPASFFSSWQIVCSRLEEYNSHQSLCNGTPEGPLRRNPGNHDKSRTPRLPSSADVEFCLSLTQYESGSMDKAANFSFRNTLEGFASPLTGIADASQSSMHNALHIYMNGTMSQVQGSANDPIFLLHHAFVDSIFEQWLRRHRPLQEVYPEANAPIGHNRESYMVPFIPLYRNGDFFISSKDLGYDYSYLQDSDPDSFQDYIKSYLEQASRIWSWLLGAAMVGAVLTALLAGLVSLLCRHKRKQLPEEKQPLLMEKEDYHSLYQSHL
The experiment in a line: Tyrosinase (DOPA oxidase) assay using cell lysate. It counts as biochemical. Conditions: SKMEL 188 human melanoma cell lysate; L-DOPA 100 μg/ml; 8 hr incubation; read at 405 nm. The method, then: 1. Tyrosinase (DOPA Oxidase) Assay Using Cell Lysate:
Human melanoma cell line, SKMEL 188 (licensed from Memorial Sloan-Kettering), is used in the cell lysate assay and the screen. In the assay, compounds and L-dihydroxyphenylalanine (L-DOPA) (100 μg/ml) are incubated with the cell lysates containing human tyrosinase for 8 hr before the plates are read at 405 nm. Potency of the compounds in DOPA oxidase assay is correlated very well with that in tyrosine hydroxylase assay using ^3H-tyrosine as a substrate.

Experiment [2] deals with guinea pig skin pigmentation. The experiment in a line: In vivo study: skin depigmentation in black or dark brown guinea pigs. The following applies: 5% solution in ethanol:propylene glycol 70:30, topical, twice daily, 5 days per week for 4-8 weeks. The source says: Black or dark brown guinea pigs with homogeneous skin color can be used in this study. A solution of the test compound (5% in ethanol:propylene glycol, 70:30) and the vehicle control are applied to the animals twice daily, 5 days per week for 4-8 weeks.

In turn, `Oc1ccc(C2CCC(O)CC2)c(O)c1` (centres unmarked) [4-(2,4-dihydroxyphenyl)cyclohexanol] showed an IC50 in experiment [1] of 200 nM. The depigmentation of skin result in experiment [2] is “depigmentation of skin”.
